# Source: ChEMBL document CHEMBL1145386, “Structure-based design, synthesis, and study of pyrazolo[1,5-a][1,3,5]triazine derivatives as potent inhibitors of protein kinase CK2” (Bioorg Med Chem Lett, 2007)
# Activity calls are given as the source filed them. The calls are words filed in the database; no cut-off is given here.
# Legend:
# [1] = system: HCT-116; assay: Growth inhibition of HCT116 cells by MTT assay; type: functional, cell-based; conditions: Homo sapiens
# [2] = system: PC-3; assay: Growth inhibition of PC3 cells; conditions: Homo sapiens
# [3] = target: Casein kinase II subunit alpha (Zea mays, UniProt P28523); assay: Inhibition of corn CK2 alpha
# Sequence of Casein kinase II subunit alpha (P28523 whole entry): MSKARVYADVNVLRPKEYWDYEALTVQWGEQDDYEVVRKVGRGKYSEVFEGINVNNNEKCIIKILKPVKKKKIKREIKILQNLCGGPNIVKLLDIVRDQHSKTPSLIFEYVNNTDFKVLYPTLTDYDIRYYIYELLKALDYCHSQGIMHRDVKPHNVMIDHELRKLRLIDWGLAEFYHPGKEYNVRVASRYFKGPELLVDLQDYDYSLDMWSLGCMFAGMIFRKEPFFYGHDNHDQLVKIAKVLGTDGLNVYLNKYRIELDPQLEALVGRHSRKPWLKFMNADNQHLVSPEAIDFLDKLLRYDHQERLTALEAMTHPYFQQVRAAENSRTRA
IC50 [1] [nM],SMILES,also measured
1480,CCOc1cccc(Nc2nc(Nc3cccc(NC(C)=O)c3)nc3c(C#N)cnn23)c1,IC50 [2]: 1200 nM
760,CCN(CC)C(=O)c1cccc(Nc2nc(Nc3cccc(NC(C)=O)c3)nc3c(C#N)cnn23)c1,IC50 [2]: 610 nM
990,CC(=O)Nc1cccc(Nc2nc(Nc3ccccc3)n3ncc(C#N)c3n2)c1,–
2100,CC(=O)Nc1cccc(Nc2nc(Nc3cccc(OC(F)F)c3)n3ncc(C#N)c3n2)c1,IC50 [2]: 1700 nM
2500,CCN(CC)c1cccc(Nc2nc(Nc3cccc(NC(C)=O)c3)nc3c(C#N)cnn23)c1,–
2200,CCN(CC)Cc1ccc(Nc2nc(Nc3cccc(NC(C)=O)c3)nc3c(C#N)cnn23)cc1,–
7600,CC(=O)Nc1cccc(Nc2nc(Nc3ccccc3)n3ncc(C)c3n2)c1,–

# The next lines start with the compound.
SMILES,IC50 [1] [nM],also measured
CC(=O)Nc1cccc(Nc2nc(Nc3cccc(C(=O)NCCN(C)C)c3)n3ncc(C#N)c3n2)c1,39000,–
CC(=O)Nc1cccc(Nc2nc(Nc3ccc(CN4CCNCC4)cc3)n3ncc(C#N)c3n2)c1,1060,IC50 [2]: 1400 nM
CN(c1ccccc1)c1nc(Nc2ccccc2)n2ncc(C#N)c2n1,–,Ki [3]: 242 nM
CC(=O)Nc1cccc(Nc2nc(Nc3cccc(C(=O)O)c3)n3ncc(C#N)c3n2)c1,–,Activity [1]: inactive
N#Cc1cnn2c(Nc3ccccc3)nc(Nc3ccccc3)nc12,–,Ki [3]: 24 nM
CC(=O)Nc1cccc(Nc2nc(NC3CC3)n3ncc(C)c3n2)c1,43000,–
CC(=O)Nc1cccc(Nc2nc(NC3CCC3)n3ncc(C#N)c3n2)c1,5500,–
CC(=O)Nc1cccc(Nc2nc(NC3CC3)n3ncc(C#N)c3n2)c1,2300,–
CC(=O)Nc1cccc(Nc2nc(Nc3cccc(C(=O)N4CCCC4)c3)n3ncc(C#N)c3n2)c1,1400,IC50 [2]: 780 nM
CC(=O)Nc1cccc(Nc2nc(NC3CC3)n3ncc(Br)c3n2)c1,18000,–
